The results in this text go back to patent publication US20130190314A1, “DERIVATIVES OF 6-CYCLOAMINO-2-THIENYL-3-(PYRIDIN-4-YL)IMIDAZO[1,2-b]-PYRIDAZINE AND 6-CYCLOAMINO-2-FURANYL-3-(PYRIDIN-4-YL)IMIDAZO[1,2-b]-PYRIDAZINE, PREPARATION AND THERAPEUTIC USE THEREOF” (priority 2008, published 2013).

The structures appear in SMILES notation.

The subject of the first data set is Mper1-luc Rat-1 (P2C4) fibroblasts. Nature of the data set: Circadian cell assay: mPer1-promoter luciferase reporter, period prolongation. The data set is classed as cell-based. The following applies: effective concentration that induced a 1-hour prolongation of the circadian period. The protocol: Mper1-luc Rat-1 (P2C4) fibroblast cultures were prepared by dividing the cultures every 3-4 days (approximately 10-20% of confluence) on 150 cm^2 degassed polystyrene tissue culture flasks (Falcon® #35-5001) and maintained in growth medium [EMEM (Cellgro #10-010-CV); 10% foetal bovine serum (FBS; Gibco #16000-044); and 50 I.U./ml of penicillin-streptomycin (Cellgro #30-001-CI)] at 37° C. and under 5% CO2.
Cells obtained from Rat-1 fibroblast cultures at 30-50% of confluence as described above were co-transfected with vectors containing the selectable marker for zeocin resistance for a stable transfection and a luciferase reporter gene controlled by the mPer-1 promoter. After 24 to 48 hours, the cultures were divided on 96-well plates and maintained in growth medium supplemented with 50-100 μg/ml of zeocin (Invitrogen® #45-0430) for 10-14 days. The zeocin-resistant stable transfectants were evaluated for the expression of the reporter gene by adding 100 μM luciferin (Promega® #E1603®) to the growth medium and by assaying the luciferase activity on a TopCount® scintillation counter (Packard Model #C384V00). The Rat-1 cell clones expressing both zeocin resistance and luciferase activity controlled by mPer1 were serum-shock synchronized with 50% horse serum [HS (Gibco® #16050-122)] and the activity of the circadian reporter was evaluated. The P2C4 clone of Mper1-luc Rat-1 fibroblasts was selected to test the compound.
Mper1-luc Rat-1 (P2C4) fibroblasts at 40-50% of confluence, obtained according to the protocol described above, were plated out onto 96-well opaque tissue culture plates (Perkin Elmer® #6005680). The cultures are maintained in growth medium supplemented with 100 μg/mL of zeocin (Invitrogen #45-0430) until they have reached 100% of confluence (48-72 h). The cultures were then synchronized with 100 μl of synchronization medium [EMEM (Cellgro #10-010-CV); 100 I.U./ml of penicillin-streptomycin (Cellgro #30-001-C1); HS at 50% (Gibco #16050-122)] for 2 hours at 37° C. and under 5% CO2. After synchronization, the cultures were rinsed with 100 μl of EMEM (Cellgro #10-010-CV) for 10 minutes at ambient temperature. After rinsing, the medium was replaced with 300 μl of CO2 independent medium [CO2I (Gibco #18045-088); 2 mM L-glutamine (Cellgro #25-005-C1); 100 I.U./ml of penicillin-streptomycin (Cellgro #30-001-C1); 100 μM luciferin (Promega #E 1603)]. […]
The period analysis was performed either by determining the interval between the relative light emission minima over several days or by Fourier transform. […] The data were analysed by adjusting a hyperbolic curve to the data expressed as change of period (Y-axis) as a function of the concentration of the test compound (X-axis) in the XLfit™ software, and the CE Delta (t+1 h) was interpolated from this curve.
On the technique in general: In a reporter assay the amount or activity of a reporter protein is the signal.
With `CN1C[C@@H]2CN(c3ccc4nc(-c5ccoc5)c(-c5ccncc5)n4n3)C[C@@H]2C1` [Compound 34], the “CE Delta (t + 1 h)” value is 17 nM. As to `CN1CCN(c2ccc3nc(-c4ccsc4)c(-c4ccncc4)n3n2)CC1` [Compound 18, 6-(4-methylpiperazin-1-yl)-3-(pyridin-4-yl)-2-(thien-3-yl)imidazo[1,2-b]pyridazine], the “CE Delta (t + 1 h)” value is 74 to 83 nM.

Tested on in another data set: not given
Assay: not given
Conditions: not given
Regarding `CC(C)(O)CN1CCN(c2ccc3nc(-c4ccoc4)c(-c4ccncc4)n3n2)CC1` [Compound 31, 1-[4-(2-furan-3-yl-3-pyridin-4-ylimidazo[1,2-b]pyridazin-6-yl)piperazin-1-yl]-2-methylpropan-2-ol], the melting point (in general, the temperature, or range, at which the solid turns liquid) was in the range of 139 to 149 °C.

In turn, `c1cc(-c2c(-c3ccsc3)nc3ccc(N4CCC(N5CCCC5)CC4)nn23)ccn1` [Compound 23, 3-(pyridin-4-yl)-6-(4-pyrrolidin-1-ylpiperidin-1-yl)-2-(thien-3-yl)imidazo[1,2-b]pyridazine] displayed a melting point of 168 to 170 °C. In the case of `CC(C)(O)CN1CCN(c2ccc3nc(-c4ccsc4)c(-c4ccncc4)n3n2)CC1` [Compound 19, 2-methyl-1-[4-(3-(pyridin-4-yl)-2-(thien-3-yl)imidazo[1,2-b]pyridazin-6-yl)piperazin-1-yl]propan-2-ol], the melting point fell in the range of 178 to 180 °C. On the same count and under the same terms, the value for `c1cc(-c2c(-c3ccsc3)nc3ccc(N4CCC5(CCCNC5)CC4)nn23)ccn1` [Compound 22, 9-[3-(pyridin-4-yl)-2-(thien-3-yl)imidazo[1,2-b]pyridazin-6-yl]-2,9-diazaspiro[5.5]undecane] was 133 to 168 °C. The same measure, in the same setting: the figure for `Cc1ccc(-c2nc3ccc(N4C[C@H]5CN(C)C[C@H]5C4)nn3c2-c2ccncc2)o1` [Compound 33, 2-(5-Methylfuran-2-yl)-6-[(cis)-5-methylhexahydropyrrolo[3,4-c]pyrrol-2(1H)-yl]-3-(pyridin-4-yl)imidazo[1,2-b]pyridazine] is 178 to 181 °C; for `c1csc(-c2nc3ccc(N4CCC5(CCCNC5)CC4)nn3c2-c2ccncc2)c1` [Compound 8, 9-(3-(pyridin-4-yl)-2-(thien-2-yl)imidazo[1,2-b]pyridazin-6-yl)-2,9-diazaspiro[5.5]undecane] it is 184 to 189 °C; for `C[C@@H]1CN(c2ccc3nc(-c4ccc(Cl)s4)c(-c4ccncc4)n3n2)C[C@H](C)N1` [Compound 13, 2-(5-chlorothien-2-yl)-6-[(cis)-3,5-dimethylpiperazin-1-yl]-3-(pyridin-4-yl)imidazo[1,2-b]pyridazine] it is 220 to 222 °C. On to `Cc1ccc(-c2nc3ccc(N4CCN(CCO)CC4)nn3c2-c2ccncc2)o1` [Compound 28, 2-{4-[2-(5-methylfuran-2-yl)-3-pyridin-4-ylimidazo[1,2-b]pyridazin-6-yl]piperazin-1-yl}ethanol], for which the melting point lay within 190 to 192 °C. `CN1C[C@@H]2CN(c3ccc4nc(-c5ccc(Cl)s5)c(-c5ccncc5)n4n3)C[C@@H]2C1` [Compound 15, 2-(5-chlorothien-2-yl)-6-[(cis)-5-methylhexahydropyrrolo[3,4-c]pyrrol-2(1H)-yl]-3-(pyridin-4-yl)imidazo[1,2-b]pyridazine] had a melting point of 217 to 220 °C. Still for that read-out and setting: the figure for `Cc1ccc(-c2nc3ccc(N4CCN(CC(C)(C)O)CC4)nn3c2-c2ccncc2)o1` [Compound 29, 2-methyl-1-{4-[2-(5-methylfuran-2-yl)-3-pyridin-4-ylimidazo[1,2-b]pyridazin-6-yl]piperazin-1-yl}propan-2-ol] is 147 to 149 °C; for `CN1CCN(c2ccc3nc(-c4ccsc4)c(-c4ccncc4)n3n2)CC1` [Compound 18, 6-(4-methylpiperazin-1-yl)-3-(pyridin-4-yl)-2-(thien-3-yl)imidazo[1,2-b]pyridazine] it is 177 to 179 °C; for `c1csc(-c2nc3ccc(N4CC5CCCNC5C4)nn3c2-c2ccncc2)c1` (stereo not drawn) [Compound 7, 6-(Octahydro-6H-pyrrolo[3,4-b]pyridin-6-yl)-3-(pyridin-4-yl)-2-(thien-2-yl)imidazo[1,2-b]pyridazine] it is 176 to 179 °C.

Consider `c1csc(-c2nc3ccc(N4CCNCC4)nn3c2-c2ccncc2)c1` [Compound 1, 6-(piperazin-1-yl)-3-(pyridin-4-yl)-2-(thien-2-yl)imidazo[1,2-b]pyridazine], for which the melting point lay within 217 to 220 °C.

The compound `c1csc(-c2nc3ccc(N4C[C@H]5CNC[C@H]5C4)nn3c2-c2ccncc2)c1` [Compound 6, 6-[(cis)-hexahydropyrrolo[3,4-c]pyrrol-2(1H)-yl]-3-(pyridin-4-yl)-2-(thien-2-yl)imidazo[1,2-b]pyridazine] showed a melting point of 179 to 183 °C.

In a further data set the target is T1, casein kinase 1 epsilon (CK1 epsilon) (Homo sapiens, UniProt P49674).
T1 construct: Invitrogen Corporation (alternative)
T1 sequence (P49674 whole entry): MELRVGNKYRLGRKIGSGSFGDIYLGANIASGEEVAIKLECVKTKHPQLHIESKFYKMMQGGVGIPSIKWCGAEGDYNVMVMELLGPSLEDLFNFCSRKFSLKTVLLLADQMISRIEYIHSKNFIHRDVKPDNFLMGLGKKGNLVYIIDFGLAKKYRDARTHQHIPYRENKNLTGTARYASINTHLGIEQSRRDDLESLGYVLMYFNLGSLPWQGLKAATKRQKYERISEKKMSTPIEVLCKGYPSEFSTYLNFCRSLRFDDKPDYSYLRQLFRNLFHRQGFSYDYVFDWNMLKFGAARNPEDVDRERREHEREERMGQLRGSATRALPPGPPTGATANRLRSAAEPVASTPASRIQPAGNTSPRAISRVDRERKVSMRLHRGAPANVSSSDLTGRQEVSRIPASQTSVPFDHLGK
Nature of the data set: Filter-plate assay of ATP-33P: inhibition of phosphorylation of casein by CK1 epsilon. The data set is classed as biochemical. The following applies: casein substrate, 10 μM ATP, 2 hours at ambient temperature. The protocol: The capacity of the compounds of the invention to inhibit the phosphorylation of casein by casein kinase 1 epsilon and delta can be evaluated according to the procedure described in document US 2005/0131012.
Filter-Plate Assay of ATP-^33P for the Screening of CK1 Epsilon Inhibitors:
The effect of the compounds on inhibition of the phosphorylation of casein by the enzyme casein kinase 1 epsilon (CK1 epsilon) is measured using a casein assay with filtration of ATP-^33P in vitro.
Casein kinase 1 epsilon (0.58 mg/ml) is obtained via fermentation and purification processes carried out according to methods well known to those skilled in the art, or may also be obtained from Invitrogen Corporation™ (human CK1 epsilon).
The compounds are tested at five different concentrations so as to generate IC50 values, i.e. the concentration at which a compound is capable of inhibiting the enzymatic activity by 50%, or alternatively the % inhibition at a concentration of 10 micromolar.
“U”-bottomed Falcon plates are prepared by placing 5 μl of solutions of the compounds according to the invention at concentrations of 10, 1, 0.1, 0.01 or 0.001 μM in various wells. The solutions of the compounds according to the invention at these various concentrations are prepared by diluting in a test buffer (50 mM Tris, pH 7.5, […], 2 mM DTT and 1 mM EGTA) a stock solution in DMSO at a concentration of 10 mM. Next, 5 μl of dephosphorylated casein are added to a final concentration of 0.2 μg/μl, 20 μl of CK1 epsilon are added to a final concentration of 3 ng/μl, and 20 μl of ATP-^33P are added to a final concentration of 0.02 μCi/μl mixed with cold ATP (10 μM final—approximately 2×10^6 CPM per well). The final total test volume per well is equal to 50 μl.
The “U”-bottomed Falcon® test plate mentioned above is vortexed, and then incubated at ambient temperature for 2 hours. After 2 hours, the reaction is stopped by adding an ice-cold solution of 65 μl of cold ATP (2 mM) prepared in test buffer. 100 μl of the reaction mixture are then transferred from the “U”-bottomed Falcon®plate into Millipore MAPH filter plates, preimpregnated with 25 μl of ice-cold 100% TCA. […]
The plates are left to dry overnight at ambient temperature. […] The radiation emitted by each well is then measured for 2 minutes in a Packard® Topcount NXT scintillation counter, in which the values of CPM/well are measured.
The % inhibition of the capacity of the enzyme to phosphorylate the substrate (casein) is determined for each concentration of compound tested. These inhibition data expressed as percentages are used to calculate the IC50 value for each compound compared with the controls.
The kinetic studies determined the KM value for ATP as being 21 μM in this test system.
With `CN1C[C@@H]2CN(c3ccc4nc(-c5ccoc5)c(-c5ccncc5)n4n3)C[C@@H]2C1` [Compound 34], half-maximal inhibition (IC50) was put at 0.015 µM. In the case of `CN1CCN(c2ccc3nc(-c4ccsc4)c(-c4ccncc4)n3n2)CC1` [Compound 18, 6-(4-methylpiperazin-1-yl)-3-(pyridin-4-yl)-2-(thien-3-yl)imidazo[1,2-b]pyridazine], inhibition was half-maximal at 0.025 µM (IC50).
